In patent US12458052B2, “Human milk oligosaccharides for use in enhancing executive function” (Glycom A/S, priority 2019, dated 2025):

Test system: genes related to myelination; myelination and myelin sheath pathway
Assay: gene expression and KEGG pathway analysis of brain samples, cross-fostering to St6Gal1 KO dams
Assay type: in vivo, mice
Conditions: presence in maternal milk, especially during early life
From the text: Adult wild-type (WT) B6.129 and heterozygous (HZ) B6.129-St6gal1^tm2Jxm breeding pairs (four males and four females and three males and four females, respectively) were purchased from a commercial breeder (The Jackson Laboratory). Upon arrival, same-sex mice were housed in same-sex groups of 2-3 in type-1 polycarbonate cages (33.0×13.0×14.0 cm) equipped with sawdust bedding, an enrichment bag (Mucedola, Settimo Milanese, Italy), metal top and ad libitum water and food pellets (Mucedola, Settimo Milanese, Italy). Mice were maintained on a reversed 12-h-light-dark cycle (light on at 7:00 PM) in an air-conditioned room (temperature 21±1° C. and relative humidity 60±10%). Two weeks after arrival, breeding triads (one male, two females) were formed. After two weeks of mating, male mice were removed and females were housed individually in standard type-1 cages. Females were checked daily for delivery and the day in which they gave birth was designated as postnatal day (PND) 0. […]
Quantification is performed using Quant It Ribogreen assay (Life Technologies) QC assessment is performed using Standard sensitivity RNA kit on Fragment Analyzer 96 (Agilent). […]
Library generation starts with oligodT priming containing the Illumina-specific Read 2 linker sequence. […] The random primer contains the Illumina-specific Read 1 linker sequence. […]

In the case of `CC(=O)N[C@H]1[C@H]([C@H](O)[C@H](O)CO)O[C@@](OC[C@H]2O[C@@H](O[C@H]3[C@H](O)[C@@H](O)[C@H](O)O[C@@H]3CO)[C@H](O)[C@@H](O)[C@H]2O)(C(=O)O)C[C@@H]1O` [6′-SL, 6′-sialyllactose], the “optimal myelination of the prefrontal cortex” value is reported as “necessary”.
